Like-named read-outs stand apart in the source and are kept apart here. Values belong to the molecule of their own block, whether it stands above or below them.
Experiments:
[1] = target: T1, human UDP‐GlcNAc 2‐epimerase (GNE) (Homo sapiens, UniProt Q9Y223); test: Mass photometry GNE assembly inhibition (inhibitor titration against 800 nM GNE); type: biochemical; conditions: for IC50 / effect on dimeric assembly: 800 nM GNE; for effect on dimeric assembly: absence of UDP‐GlcNAc; for Ki: from IC50 ^S (T) by modified Cheng–Prusoff equation (Equation S4), read-out: K i ^S (T)
T1 construct: The MNK subunit connects to the C‐terminus of the GNE subunit; made in house; host or cells: Escherichia coli BL21 (DE3)
T1 sequence (Q9Y223 1-405 limits assumed): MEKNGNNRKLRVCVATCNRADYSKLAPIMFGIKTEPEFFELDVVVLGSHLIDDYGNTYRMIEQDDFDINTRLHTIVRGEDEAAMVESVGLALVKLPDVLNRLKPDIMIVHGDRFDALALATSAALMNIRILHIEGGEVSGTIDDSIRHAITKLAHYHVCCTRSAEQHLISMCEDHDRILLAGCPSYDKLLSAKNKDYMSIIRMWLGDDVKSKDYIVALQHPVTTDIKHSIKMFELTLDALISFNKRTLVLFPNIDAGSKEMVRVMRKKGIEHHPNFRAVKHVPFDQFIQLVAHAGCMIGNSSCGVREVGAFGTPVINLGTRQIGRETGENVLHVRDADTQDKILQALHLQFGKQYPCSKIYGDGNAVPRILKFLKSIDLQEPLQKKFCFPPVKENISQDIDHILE
Description: All MP measurements were conducted using a OneMP (Refeyn) instrument equipped with a 525 nm green laser. To minimize background noise, the instrument was placed on an active vibration isolation system (Accurion i4 Series, Park Systems). High‐precision glass coverslips (Paul Marienfeld GmbH & Co. KG, Cat# 0107222) were thoroughly cleaned before use to ensure optimal measurement conditions. Prior to MP measurements, samples were incubated in phosphate buffer (DPBS[−|−], Gibco, Cat# 14190144) and low‐binding tubes for 30 min in a ThermoMixer C (Eppendorf, Cat# 5382000015) at 20°C to allow binding equilibrium to be reached. Immediately before measurement, a 50 nM working solution was prepared. Then, 5 μL of the working solution was added to a 15 μL DPBS (−|−) droplet on the glass coverslip, followed by mixing upon pipetting to ensure proper distribution before measurements began immediately. […] For the measurements, a regular field of view was used. Data acquisition was performed over a 60‐s detection period with manual focus adjustment. Data were recorded using the software AquireMP (2024 R2, Refeyn) and referenced against a glycinin mass standard in DPBS (−|−). The glycinin standard, derived from defatted soybean flour, forms characteristic trimers (160 kDa), hexamers (320 kDa), nonamers (480 kDa), and dodecamers (640 kDa). Purified and lyophilized glycinin was kindly provided by the group of Dr. Rumiana Dimova (Chen et al., [2020]; Mangiarotti et al., [2025]). Data analysis and graphical visualization were performed using DiscoverMP (2024 R2, Refeyn) and GraphPad Prism 10 (10.1.1, Dotmatics). All experiments were conducted in at least three independent replicates, each performed as technical triplicates.
Twofold serial dilutions of the inhibitors (500–7.81 μM) were titrated against a constant GNE concentration (800 nM), either in the presence or absence of UDP‐GlcNAc (100 μM). The GNE and substrate concentrations were selected based on titration experiments ensuring binding saturation and the establishment of an assembly equilibrium. Prior to measurements, samples were incubated for 30 min at 20°C to allow equilibrium to be reached. IC50 values were determined from protein fraction vs. inhibitor concentration plots and fitted using a Hill‐based logistic function (Equation S3). Subsequently, K i values for GNE inhibitors were derived from a Cheng–Prusoff equation accounting for allostery (Equation S4), detailed in Supporting Information S1.

[2] = target: T1, human UDP‐GlcNAc 2‐epimerase (GNE); test: Mass photometry Schild experiments and OMAM global fit (GNE tetramer inhibition by C15); type: binding
Description: (§1) All MP measurements were conducted using a OneMP (Refeyn) instrument equipped with a 525 nm green laser. To minimize background noise, the instrument was placed on an active vibration isolation system (Accurion i4 Series, Park Systems). High‐precision glass coverslips (Paul Marienfeld GmbH & Co. KG, Cat# 0107222) were thoroughly cleaned before use to ensure optimal measurement conditions. Prior to MP measurements, samples were incubated in phosphate buffer (DPBS[−|−], Gibco, Cat# 14190144) and low‐binding tubes for 30 min in a ThermoMixer C (Eppendorf, Cat# 5382000015) at 20°C to allow binding equilibrium to be reached. Immediately before measurement, a 50 nM working solution was prepared. Then, 5 μL of the working solution was added to a 15 μL DPBS (−|−) droplet on the glass coverslip, followed by mixing upon pipetting to ensure proper distribution before measurements began immediately. This approach provided high reproducibility in our results. For the measurements, a regular field of view was used. Data acquisition was performed over a 60‐s detection period with manual focus adjustment. Data were recorded using the software AquireMP (2024 R2, Refeyn) and referenced against a glycinin mass standard in DPBS (−|−). The glycinin standard, derived from defatted soybean flour, forms characteristic trimers (160 kDa), hexamers (320 kDa), nonamers (480 kDa), and dodecamers (640 kDa). Purified and lyophilized glycinin was kindly provided by the group of Dr. Rumiana Dimova (Chen et al., [2020]; Mangiarotti et al., [2025]). Data analysis and graphical visualization were performed using DiscoverMP (2024 R2, Refeyn) and GraphPad Prism 10 (10.1.1, Dotmatics). All experiments were conducted in at least three independent replicates, each performed as technical triplicates.
To assess the binding affinity of inhibitors to GNE, modified Schild experiments were performed using MP. Serial dilutions of UDP‐GlcNAc (800 μM to 100 nM) were titrated against a constant GNE concentration (800 nM) in the presence of varying concentrations of inhibitor C15 (200 μM to 2 nM). Enzyme and substrate concentrations were chosen based on prior titration experiments (Figure 2c,g) to ensure a stable oligomeric equilibrium. Inhibitor concentrations were selected around the IC50 to enable accurate response characterization. Samples were incubated for 30 min at 20°C to ensure equilibration before measurement. EC50 values were obtained from substrate titration curves (tetramer fraction vs. UDP‐GlcNAc concentration), fitted using a Hill‐based function (Equation S3). The resulting EC50 values in the presence of inhibitor (EC50,Inh) were converted into logarithmic concentration ratios (log(CR‐1)) and plotted against the corresponding logarithmic inhibitor concentrations to generate a Schild plot. Data points were then fitted using a linear Schild equation (Equation S5), as described in the Supporting Information S1. Further cooperative factors were obtained from fitting the substrate concentration‐dependent response curves globally with an OMAM model (Equation S6) (Jakubík et al., [2020]).

[3] = tested on: GNE; design: method as in Chen et al., 2016; conditions: ref Chen et al., 2016; cited from earlier work
[4] = target: T1, human UDP‐GlcNAc 2‐epimerase (GNE); test: Mass photometry affinity measurements of GNE subunits / substrate titration; type: binding
Description: as §1
To determine the intermolecular protein affinities of GNE subunits, their assembly distribution was assessed using MP experiments. In the absence of substrate, serial GNE dilutions (50 μM to 50 nM) were performed to evaluate GNE subunit interactions. In the presence of UDP‐GlcNAc, intermolecular affinity changes were assessed through two titration approaches: First, different concentrations of UDP‐GlcNAc (500–7.81 μM) were titrated against a fixed concentration of GNE (0.8 μM). Second, different concentrations of GNE (0.2–10 μM) were titrated against a fixed concentration of UDP‐GlcNAc (100 μM). KD values were obtained from binding curves (Figure S4), fitted using a Hill‐based logistic model (Equation S1) (Fineberg et al., [2020]). The following dissociation constants were determined: K D ^0 (M:M) and K D ^0 (D:D) in the absence of UDP‐GlcNAc, K D ^S (D:D) and K D ^S (M:M) in the presence of UDP‐GlcNAc.

[5] = target: the molecule itself; test: mass photometry
[6] = target: the molecule itself; test: mass photometry; remark: listed apart in the source
[7] = 100 μM UDP‐GlcNAc, DPBS pH 7.4, 20°C, Hill n fixed 1.3, read-out: IC50 ^S (T), GNE tetramer destabilization
[8] = absence of UDP-GlcNAc, read-out: IC50^0(D), GNE dimer inhibition
[9] = presence of 100 µM UDP-GlcNAc, read-out: IC50^S(D), GNE dimer inhibition
[10] = substrate titration against 800 nM GNE

Molecule: CC(=O)N[C@H]1[C@@H](OP(=O)([O-])OP(=O)([O-])OC[C@H]2O[C@@H](n3ccc(=O)[nH]c3=O)[C@H](O)[C@@H]2O)O[C@H](CO)[C@@H](O)[C@@H]1O.[Na+].[Na+] [UDP‐GlcNAc, Uridine diphosphate N‐acetyglucosamine disodium salt]
- operational efficacy τ S (substrate) ([2]; OMAM fit): 17.6
- K M of GNE [3]: 33.1 ± 4.2 µM
- increase of dimer–dimer affinity by substrate binding [4]: 98 fold
- Kd ([4]; from tetramer curve, substrate titration against 800 nM GNE, Equation S2, read-out: substrate affinity K S): 34.6 ± 3 µM
- Kd ([4]; presence of 100 μM UDP‐GlcNAc, fit Equation S1, read-out: K D ^S (D:D), GNE dimer–dimer interaction): 0.0981 ± 0.0091 µM
- Kd ([4]; presence of 100 μM UDP‐GlcNAc, fit Equation S1, read-out: K D ^S (M:M), GNE monomer–monomer interaction): 0.0372 ± 0.0075 µM
- Kd ([4]; presence of 100 μM UDP‐GlcNAc, mean calculated by law of mass action, read-out: K D ^S Calc.(D:D)): 0.221 ± 0.0272 µM
- Kd ([4]; presence of 100 μM UDP‐GlcNAc, mean calculated by law of mass action, read-out: K D ^S Calc.(M:M)): 0.0653 ± 0.0124 µM
- Hill coefficient n of tetramer fraction [4, 10]: 1.3
- maximal response E max (maximal tetramer fraction) [4, 10]: 68.3%

B1: GNE (UDP-GlcNAc 2-epimerase), monomer UDP-GlcNAc 2-epimerase domain (protein)
chain: T1 sequence (Q9Y223 1-405 limits assumed)
- Kd [5]: 0.0126 µM

B2: GNE (UDP-GlcNAc 2-epimerase), dimer UDP-GlcNAc 2-epimerase domain (protein)
chain: T1 sequence (Q9Y223 1-405 limits assumed)
- Kd [6]: 9.6 µM

Second part, led by results:

- IC50 [1, 7]: 19.4 ± 4.2 µM
- IC50 [1, 8]: > 1000 µM
- IC50 [1, 9]: 472 ± 42.5 µM
- Ki ([1]; 100 μM UDP‐GlcNAc): 0.508 ± 0.182 µM
Molecule: O=c1nc(/C=C/c2cc([N+](=O)[O-])ccc2Cl)cc(C(F)(F)F)[nH]1 [C13, (E)‐4‐(2‐chloro‐5‐nitrostyryl)‐6‐(trifluoromethyl)pyrimidin‐2(1H)‐one]
- effect on dimeric assembly [1]: significantly disrupted the dimeric assembly

- K B (OMAM) fold lower than K B,app (Schild) [2]: ~ 28 fold
- operational cooperativity factor β ([2]; OMAM fit): ≈ 0
- operational efficacy τ I (inhibitor) ([2]; OMAM fit): 0.02
- binding cooperativity factor ɑ ([2]; OMAM fit, between C15 and substrate binding): 0.02
- Kd ([2]; OMAM global fit (Equation S6), read-out: inhibitor affinity K B): 0.0252 µM
- Schild slope m ([2]; linear region 0.8–10 μM C15, Equation S5): 1.1
- Kd ([2]; x‐intercept of linear Schild fit (linear region 0.8–10 μM C15), 800 nM GNE, read-out: apparent affinity K B,app): ~0.7 µM
- IC50 [1, 7]: 3.1 ± 1.2 µM
- IC50 [1, 8]: 21 ± 2.6 µM
- IC50 [1, 9]: 173 ± 100 µM
- tetramer inhibition at single concentration ([1]; 31.25 μM C15, 800 nM GNE, 100 μM UDP‐GlcNAc): full tetramer inhibition
- Ki ([1]; 100 μM UDP‐GlcNAc): 0.0826 ± 0.0397 µM
Molecule: COc1c(Br)cc(Br)cc1/C=C/c1cc(C(F)(F)F)[nH]c(=O)n1 [C15, (E)‐4‐(3,5‐dibromo‐2‐methoxystyryl)‐6‐(trifluoromethyl)pyrimidin‐2(1H)‐one]
- effect on dimeric assembly [1]: significantly disrupted the dimeric assembly
